Laboratory results: US10130830B2, “Preservative systems comprising cationic surfactants” (Laboratorios Miret, S.A., priority 2005, dated 2018)
Where “and” joins values, the source holds several entries; their conditions need not be identical. Equal values may be shown once.

Key:
[1] = tested on: aerobic total count; assay: Preservative action in cooked chicken breast, aerobic total count; format: cell-based; conditions: Example 9, cooked chicken, 0.2 g/kg
Protocol: (2) Determination of Preservative Action in Chicken Breast. Process of Preparation • 1. Fresh chicken breast was diced to pieces • 2. Brine (8.70% sodium chloride and 4.35% tripolyphosphate in water) was added to the fresh chicken in an amount of 11.5 g brine per 88.5 g meat in the control preparation and 11.5 g brine and 88.4 g meat in the preparations treated with preservative. • 3. Brine and meat were mixed during 15 minutes, in the preparations treated with preservative the preservative was added after 14 minutes in an amount of 0.2 g/kg. • 4. Vacuum refrigerate tumbling was made during 30 minutes. • 5. Samples were vacuum-packed in sterile bags and they were cooked at 85° C. for 30 minutes. • 6. The cooked chicken was refrigerated at 4° C. • 7. The cooked chicken was diced in irregular shapes. • 8. Then, the nuggets were stored at 10° C. in sterile vacuum-packed bags. Analysis […] Dilutions were made in buffered peptone water. Tryptone Soya Agar was harvested with each dilution and incubated at 35° C. for 48 hours. The mean value in log cfu/g of three samples per treatment and day of analysis was calculated.

[2] = tested on: Aerobes; assay: Preservative action in cosmetic products (Antimicrobial Effectiveness Testing USP 24th Edition), aerobes; format: cell-based; conditions: Example 10, oil in water emulsion with non-ionic surfactant, 0.2 g/kg
Description: (§1) (1) Determination of Preservative Action in Cosmetic Products. […] This assay consists of the contamination of the protecting formulations with an inoculum mixture of 10^8 cfu/ml concentration, for each of the micro-organisms, and the determination of the number of viable cells in time. This inoculum mixture is composed of the following microorganisms: [table] The cosmetic composition to be analysed is divided into sterile containers with 50 g of product for each flask. Each container is inoculated with 0.5 ml of inoculum (10^8 cfu/ml). The target concentration is 10^6 cfu/ml, approximately. All the containers are kept at a temperature between 20-25° C. and are protected from light. The level of the microbial contamination is checked at 0 hours, 7 days, 14 days and 28 days. The number of colonies is evaluated by dilution in buffer peptone with the appropriate neutraliser agent of the preservative. The culture media used for counting the microorganisms are: […] (2) Determination of Preservative Action in Chicken Breast. Process of Preparation • 1. Fresh chicken breast was diced to pieces • 2. Brine (8.70% sodium chloride and 4.35% tripolyphosphate in water) was added to the fresh chicken in an amount of 11.5 g brine per 88.5 g meat in the control preparation and 11.5 g brine and 88.4 g meat in the preparations treated with preservative. • 3. Brine and meat were mixed during 15 minutes, in the preparations treated with preservative the preservative was added after 14 minutes in an amount of 0.2 g/kg. • 4. Vacuum refrigerate tumbling was made during 30 minutes. • 5. Samples were vacuum-packed in sterile bags and they were cooked at 85° C. for 30 minutes. • 6. The cooked chicken was refrigerated at 4° C. • 7. The cooked chicken was diced in irregular shapes. • 8. Then, the nuggets were stored at 10° C. in sterile vacuum-packed bags. Analysis

[3] = tested on: Moulds; assay: Preservative action in cosmetic products (Antimicrobial Effectiveness Testing USP 24th Edition), moulds; format: cell-based, Aspergillus niger; conditions: Example 10, oil in water emulsion with non-ionic surfactant, 0.2 g/kg
Description: as §1

[4] = tested on: Yeast; assay: Preservative action in cosmetic products (Antimicrobial Effectiveness Testing USP 24th Edition), yeast; format: cell-based, Candida albicans; conditions: Example 10, oil in water emulsion with non-ionic surfactant, 0.2 g/kg
Description: as §1

[5] = day 56 (8 weeks), mean of triplicate

With `CC(=O)O.CCCCCCCCCCCC(=O)N[C@@H](CCCN=C(N)N)C(=O)OCC` [LAE Ac, LAE acetate] the “aerobic total count, mean” value ([1]; day 0, mean of triplicate) was 2.0 log cfu/g, the aerobic total count ([1]; day 0, samples 1-3) was 2.0 log cfu/g and the “aerobic total count, mean” value ([1]; day 7, mean of triplicate) was 2.0 log cfu/g. For the same compound, the aerobic total count ([1]; day 7, samples 1-3) was 2.0 log cfu/g, the “aerobic total count, mean” value ([1]; day 14, mean of triplicate) was 2.0 log cfu/g and the aerobic total count ([1]; day 14, samples 1-3) was 2.0 log cfu/g. For the same compound, the “aerobic total count, mean” value ([1]; day 21, mean of triplicate) was 2.1 log cfu/g, the aerobic total count ([1]; day 21, samples 1-3) was 2.1 log cfu/g and 2.3 log cfu/g and 2.0 log cfu/g and the “aerobic total count, mean” value ([1]; day 28, mean of triplicate) was 2.5 log cfu/g. For the same compound, the aerobic total count ([1]; day 28, samples 1-3) was 3.0 log cfu/g and 2.1 log cfu/g and 2.3 log cfu/g, the “aerobic total count, mean” value ([1]; day 35, mean of triplicate) was 2.5 log cfu/g and the aerobic total count ([1]; day 35, samples 1-3) was 2.3 log cfu/g and 2.8 log cfu/g and 2.5 log cfu/g. For the same compound, the “aerobic total count, mean” value ([1]; day 42, mean of triplicate) was 3.1 log cfu/g, the aerobic total count ([1]; day 42, samples 1-3) was 3.1 log cfu/g and 2.8 log cfu/g and 3.3 log cfu/g and the “aerobic total count, mean” value ([1]; day 49, mean of triplicate) was 3.4 log cfu/g. The aerobic total count ([1]; day 49, samples 1-3) was 3.3 log cfu/g and 3.0 log cfu/g and 3.9 log cfu/g, the “aerobic total count, mean” value [1, 5] was 3.9 log cfu/g and the aerobic total count ([1]; day 56, samples 1-3) was 3.8 log cfu/g and 4.0 log cfu/g and 3.9 log cfu/g. For the same compound, the Aerobes count ([2]; 0 days) was 6.0 log cfu/g, the Aerobes count ([2]; 7 days) was 2.5 log cfu/g and the Aerobes count ([2]; 14 days) was <2.0 log cfu/g. The Moulds count ([3]; 0 days) was 4.1 log cfu/g, the Moulds count ([3]; 7 days) was <2.0 log cfu/g and the Moulds count ([3]; 14 days) was <2.0 log cfu/g. The Yeast count ([4]; 0 days) was 5.3 log cfu/g, the Yeast count ([4]; 7 days) was 2.1 log cfu/g and the Yeast count ([4]; 14 days) was <2.0 log cfu/g.
`CCCCCCCCCCCC(=O)N[C@@H](CCCN=C(N)N)C(=O)OCC.N[C@@H](CCC(=O)O)C(=O)O` [LAE Gl, LAE glutamate] was tested, and the “aerobic total count, mean” value ([1]; day 0, mean of triplicate) was 2.0 log cfu/g, the aerobic total count ([1]; day 0, samples 1-3) was 2.0 log cfu/g and the “aerobic total count, mean” value ([1]; day 7, mean of triplicate) was 2.0 log cfu/g. The aerobic total count ([1]; day 7, samples 1-3) was 2.0 log cfu/g, the “aerobic total count, mean” value ([1]; day 14, mean of triplicate) was 2.0 log cfu/g and the aerobic total count ([1]; day 14, samples 1-3) was 2.0 log cfu/g. For the same compound, the “aerobic total count, mean” value ([1]; day 21, mean of triplicate) was 2.1 log cfu/g, the aerobic total count ([1]; day 21, samples 1-3) was 2.1 log cfu/g and 2.2 log cfu/g and 2.0 log cfu/g and the “aerobic total count, mean” value ([1]; day 28, mean of triplicate) was 2.3 log cfu/g. The aerobic total count ([1]; day 28, samples 1-3) was 2.5 log cfu/g and 2.1 log cfu/g and 2.2 log cfu/g, the “aerobic total count, mean” value ([1]; day 35, mean of triplicate) was 2.4 log cfu/g and the aerobic total count ([1]; day 35, samples 1-3) was 2.3 log cfu/g and 2.5 log cfu/g. For the same compound, the “aerobic total count, mean” value ([1]; day 42, mean of triplicate) was 2.7 log cfu/g, the aerobic total count ([1]; day 42, samples 1-3) was 2.6 log cfu/g and 2.8 log cfu/g and the “aerobic total count, mean” value ([1]; day 49, mean of triplicate) was 3.2 log cfu/g. The aerobic total count ([1]; day 49, samples 1-3) was 3.2 log cfu/g and 3.0 log cfu/g and 3.5 log cfu/g, the “aerobic total count, mean” value [1, 5] was 3.5 log cfu/g and the aerobic total count ([1]; day 56, samples 1-3) was 3.5 log cfu/g and 3.8 log cfu/g and 3.3 log cfu/g. For the same compound, the Aerobes count ([2]; 0 days) was 6.1 log cfu/g, the Aerobes count ([2]; 7 days) was 2.3 log cfu/g and the Aerobes count ([2]; 14 days) was <2.0 log cfu/g. The Moulds count ([3]; 0 days) was 4.1 log cfu/g, the Moulds count ([3]; 7 days) was <2.0 log cfu/g and the Moulds count ([3]; 14 days) was <2.0 log cfu/g. The Yeast count ([4]; 0 days) was 5.6 log cfu/g, the Yeast count ([4]; 7 days) was 2.4 log cfu/g and the Yeast count ([4]; 14 days) was <2.0 log cfu/g.
With `CC(O)C(=O)O.CCCCCCCCCCCC(=O)N[C@@H](CCCN=C(N)N)C(=O)OCC` [LAE La, LAE lactate] the “aerobic total count, mean” value ([1]; day 0, mean of triplicate) was 2.0 log cfu/g, the aerobic total count ([1]; day 0, samples 1-3) was 2.0 log cfu/g and the “aerobic total count, mean” value ([1]; day 7, mean of triplicate) was 2.0 log cfu/g. The aerobic total count ([1]; day 7, samples 1-3) was 2.0 log cfu/g, the “aerobic total count, mean” value ([1]; day 14, mean of triplicate) was 2.0 log cfu/g and the aerobic total count ([1]; day 14, samples 1-3) was 2.0 log cfu/g. For the same compound, the “aerobic total count, mean” value ([1]; day 21, mean of triplicate) was 2.2 log cfu/g, the aerobic total count ([1]; day 21, samples 1-3) was 2.1 log cfu/g and 2.4 log cfu/g and 2.0 log cfu/g and the “aerobic total count, mean” value ([1]; day 28, mean of triplicate) was 2.3 log cfu/g. For the same compound, the aerobic total count ([1]; day 28, samples 1-3) was 2.6 log cfu/g and 2.1 log cfu/g and 2.3 log cfu/g, the “aerobic total count, mean” value ([1]; day 35, mean of triplicate) was 2.7 log cfu/g and the aerobic total count ([1]; day 35, samples 1-3) was 2.8 log cfu/g and 2.5 log cfu/g. For the same compound, the “aerobic total count, mean” value ([1]; day 42, mean of triplicate) was 3.3 log cfu/g, the aerobic total count ([1]; day 42, samples 1-3) was 3.1 log cfu/g and 3.5 log cfu/g and 3.3 log cfu/g and the “aerobic total count, mean” value ([1]; day 49, mean of triplicate) was 3.6 log cfu/g. For the same compound, the aerobic total count ([1]; day 49, samples 1-3) was 3.3 log cfu/g and 3.6 log cfu/g and 3.9 log cfu/g, the “aerobic total count, mean” value [1, 5] was 4.1 log cfu/g and the aerobic total count ([1]; day 56, samples 1-3) was 4.2 log cfu/g and 4.0 log cfu/g and 3.9 log cfu/g. The Aerobes count ([2]; 0 days) was 6.1 log cfu/g, the Aerobes count ([2]; 7 days) was 2.2 log cfu/g and the Aerobes count ([2]; 14 days) was <2.0 log cfu/g. For the same compound, the Moulds count ([3]; 0 days) was 4.2 log cfu/g, the Moulds count ([3]; 7 days) was <2.0 log cfu/g and the Moulds count ([3]; 14 days) was <2.0 log cfu/g. For the same compound, the Yeast count ([4]; 0 days) was 5.4 log cfu/g, the Yeast count ([4]; 7 days) was 2.2 log cfu/g and the Yeast count ([4]; 14 days) was <2.0 log cfu/g.
